In series [1] the test system is total cholesterol. Briefly: Anti-hyperlipemia activity, total cholesterol in blood. The format is in vivo, rabbit (Japanese white male). As to conditions: oral, 300 mg/kg once; for Reduction of cholesterol level after 3 hrs.: negative = raising. The procedure:
(§1) Japanese white male rabbits were fed for 3 months with a solid diet containing 1% of cholesterol taken ad lib, and after confirming the raised lipid content of the serum of the rabbits, they were utilized as model animals suffering from experimental arteriosclerosis. Each of the present compounds was administered orally as a solution or dispersion in distilled water to the experimental animals of each group at a dose rate of 300 mg/kg once, and blood samples were taken at a predetermined time interval from the auricular vein of each animal. The content of cholesterol in the blood specimen was traced as the time passed by, with an enzymatic method, and the content of beta-lipoprotein in the same blood specimen was traced with a colorimetry. Each value in Table 7 is the difference between the level just before administration and the level after 3 or 6 hours of the administration.

For series [2], the system named is carrageenin edema. Briefly: Anti-Carrageenin edema activity. It counts as in vivo, rat. As to conditions: Rattus norvegicus, po, 1000 mg/kg once, read-out: I.R. against carrageenin edema. The procedure:
After orally administering each of the present compounds forcibly to each group of rats, composed of 10 animals, as a solution or dispersion in distilled water at a dose of 1000 mg/kg once, 0.1 ml of an aqueous dispersion of 1% carrageenin in aqueous physiological saline solution was injected into the foot pad of the right hind leg of the administered animal following Van Arman et al. (1963). Thereafter, the thickness of the foot pad was measured at a time interval to find the rate of inhibiting of the swelling of the foot pad according to the following formula:
(§2) Rate of inhibition (I.R.) (%)=(1-T/C)×100
T means the average volume of the foot pad of the animals administered with one of the present compounds and carrageenin, and
C means that of the animal not administered with the present compound, however, administered with carrageenin.
(Carrageenan injected into the paw causes an acute inflammation.)

The test system of series [3] is cotton pellet granuloma. Briefly: Anti-granuloma activity (cotton pellet). It counts as in vivo, rat. As to conditions: Rattus norvegicus, po, 192 h, 7 days, read-out: I.R. against cotton pellet edema. The procedure: Following the method of Winter et al. (1963), each two cotton wool pellets, each weighing 30±1 mg, were implanted into the back of each rats of groups of rats, each group consisting of 6 animals, at the positions of mutually symmetrical concerning the median line of the rat. To these groups of the thus operated rats, the present compounds were respectively administered orally and forcibly as a solution or dispersion in distilled water for 7 continuous days, once a day at a dose of 1000 mg/kg/day. On 8th day of the implantation, the granuloma was extirpated and the dry weight of the granuloma was measured, the rate of inhibiting the proliferation of granuloma being obtained as in (5-1) being shown in Table 8.

For series [4], the system named is acetic acid writhing. Nature of the series: Analgetic activity against chemical stimulation of acetic acid (writhing). As to conditions: Mus musculus, po, 30 min before 0.6% acetic acid, read-out: I.R. of writhing. The format is in vivo, mouse (ICR female).
Text: as §2
T represents the average number of writhing of the group of mice administered with the present compound and injected with acetic acid, and C represents the average number of writhing of the group of mice only injected with acetic acid (control).
Background: Writhing tests count abdominal constrictions after an irritant is injected.

The subject of series [5] is beta-lipoprotein. Nature of the series: Anti-hyperlipemia activity, beta-lipoprotein in blood. The format is in vivo, rabbit (Japanese white male). As to conditions: oral, 300 mg/kg once. The procedure: as §1
For series [6], the system named is blood pressure. Nature of the series: Anti-hypertension activity (reduction of blood pressure). The format is in vivo, rat (spontaneous hypertension). As to conditions: oral, 300 mg/kg. The procedure:
Rats of spontaneous hypertension were orally administered with each of the present compounds as a solution or dispersion in distilled water at a dose rate of 300 mg/kg body weight. After 3 and 6 hours of the administration, the blood pressure of each rat was determined, and the difference between the above-determined value and the value just before the administeration was used as the index of the activity of reducing the blood pressure of the compound.

In series [7] the test system is pyrexia (Saccharomyces cerevisiae). Nature of the series: Anti-pyrexia activity (yeast-induced). As to conditions: Rattus norvegicus, oral, read-out: Rate of inhibiting pyrexia (I.R.). The format is in vivo. The procedure:
Following the method of Winter et al. (1961), an aqueous dispersion of 20% by weight of Saccharomyces cerevisiae was subcutaneously injected into groups of rats, each group consisting of 6 animals, and after 10-hour fasting, 1000 mg/kg of each of the present compounds was orally administered to the rat as a solution of dispersion in distilled water, and then the rectal temperature of the rat was measured at a predetermined interval of time to find the lowest temperature.
The anti-pyrexia activity of each compound was obtained from the following formula: […]
Anti-pyrexia activity represented by the rate of inhibition (I.R.)
C2 represents the average rectal temperature of negative control (non-treatment), not injected with the yeast and not administered with the present compound,
C1 represents the average temperature of positive control, injected with the yeast and not administered with the compound and T represents the temperature of tested animals, injected with the yeast and administered with the present compound.

Series [8] deals with pseudo-escaping reaction to tail pressure. Nature of the series: Analgetic activity against mechanical stimulation of pressure. The format is in vivo, mouse (ICR female). As to conditions: oral, 1000 mg/kg.
In series [9] the test system is exudation. Nature of the series: Anti-exudation activity (air pouch, croton oil). The format is in vivo, rat. As to conditions: 5 days; for inhibition in vivo at 1000 mg/kg/day: Rattus norvegicus, po, 144 h, read-out: I.R. against exudation. The procedure:
Following the method of Baris et al. (1965), air was injected subcutaneously into the back of groups of rats, each group consisting of 6 animals to make an air pouch, and 0.5 ml of sesame oil containing 1% by weight of croton oil was injected into the air pouch. Each of the present compounds was orally administered forcibly to each of the groups of rats as a solution or dispersion in distilled water at a dose rate of 1000 mg/kg/day for continued five days. The amount of liquid exudated into the air pouch was measured on 6th day of the operation. The rate of inhibiting the exudation of the liquid was obtained by the same manner as in (5-2) and the results are shown also in Table 8.

A short description of series [10]: in vivo. As to conditions: mouse, in vivo, po, mice, 7 days observation, read-out: LD50, acute oral toxicity.
Series [11] deals with level of blood sugar. Briefly: Anti-hyperglycemia activity (reduction of blood sugar level). The format is in vivo, rat (Wistar, streptozotocin). As to conditions: oral, 300 mg/kg. The procedure:
A group of Wistar rats to which at first streptozotocin was interperitoneally administered at a rate of 60 mg/kg and of which the positivity of glycosuria was confirmed after a week of the administration and to which regular insulin was further administered and of which the reduction of levels of glucose in urine and blood was once confirmed, however, of which hyperglycemia and hyperglycosuria were again confirmed after a few days was chosen and used as model animals of glycosuria in the following test. After orally administering each of the present compounds to the model animals at a dose of 300 mg/kg body weight, as a solution or dispersion in distilled water, the blood was collected two times, respectively after 3 and 6 hours of the administration.

The subject of series [12] is Sarcoma-180. Nature of the series: Anti-tumour activity against Sarcoma-180. As to conditions: Mus musculus, Sarcoma-180, po, 600 h, 10 times every other day, tumour weight on 25th day, read-out: Antitumour activity, inhibiting rate (I.R.). The format is in vivo, mouse (ICR-JCL). The procedure:
Sarcoma-180 was transplanted into the axillary part of ICR-JCL mice at a rate of 1×10^6 cells/animal, and after 24 hours of transplantation, each of the present compounds as a solution or dispersion in sterilized physiological saline solution was orally administered to each of the transplanted mice 10 times every other day at a dose of 500 mg/kg/time. On 25th day of the transplantation, tumour node(s) were extirpated from all the mice to determine the weight of the tumour nodes.
Antitumour activity (activity of inhibiting the proliferation of the transplanted sarcoma) of each of the present compounds was derived by the following formula and shown in Table 6:
Antitumour activity (Inhibiting rate, I.R.)=(1-T/C)×100(%).
T represents the total weight of tumour nodes of the group of mice transplanted and administered with the present compound, and
C represents the total weight of tumour nodes of the group of mice transplanted, however, not administered with any agents.

The results in this text go back to US4372948A, “Derivative of saccharide and physiologically active agent containing the same” (Kureha Kagaku Kogyo Kabushiki Kaisha, priority 1980, dated 1983).

SMILES strings stand for the structures.

Usually LD50 stands for the dose expected to kill half of the subjects tested.

For the molecule `NC(=O)c1ccccc1NC1(CO)OC[C@@H](O)[C@@H](O)[C@@H]1O` (stereo partly drawn) [Compound 1, o-Aminobenzoic acid amide-N-D-fructoside], in [1], the “Reduction of cholesterol level after 3 hrs.” value was -2 mg/dL and the “Reduction of cholesterol level after 6 hrs.” value came out at 36 mg/dL. In addition, the inhibition in vivo at 1000 mg/kg in series [2] came out at 15.6%. Further, the inhibition in vivo at 1000 mg/kg/day in [3] is 6.6%. In addition, in series [4], the inhibition in vivo at 1000 mg/kg was determined as 17%. Further, in [5], the “Reduction of beta-lipoprotein level after 3 hrs.” value came out at 120 mg/dL and the “Reduction of beta-lipoprotein level after 6 hrs.” value amounted to 131 mg/dL. In addition, in [6], the “Reduced level of blood pressure after 3 hrs.” value was 16 mm Hg and the “Reduced level of blood pressure after 6 hrs.” value is 19 mm Hg. Further, the inhibition in vivo at 1000 mg/kg in series [7] stood at 41%. For the same molecule, in [8], the Pseudo-escapting reaction pressure worked out at 78 mmHg and the Pseudo-escapting reaction time came to 38 s. Besides, the inhibition in vivo at 1000 mg/kg/day in [9] came to 17.5%. The LD50 at 168 h in [10] came out at 11800 mg/kg. Besides, in series [11], the “Reduced level of blood sugar after 3 hrs.” value amounted to 68 mg/dL and the “Reduced level of blood sugar after 6 hrs.” value turned out to be 92 mg/dL. In series [12], the inhibition in vivo at 500 mg/kg was determined as 42%.
In the case of `NC(=O)c1cccc(NC2O[C@H](CO)[C@@H](O[C@@H]3O[C@H](CO)[C@@H](O)[C@H](O)[C@H]3O)[C@H](O)[C@H]2O)c1` (stereo partly shown) [Compound 2, m-aminobenzoic acid amide-N-cellobioside], in series [1], the “Reduction of cholesterol level after 3 hrs.” value is 1 mg/dL and the “Reduction of cholesterol level after 6 hrs.” value was determined as 30 mg/dL. For the same molecule, the inhibition in vivo at 1000 mg/kg in series [2] worked out at 20.3%. Moreover, in series [3], the inhibition in vivo at 1000 mg/kg/day stood at 6.1%. In addition, the inhibition in vivo at 1000 mg/kg in series [4] was determined as 20%. Besides, in series [5], the “Reduction of beta-lipoprotein level after 3 hrs.” value was found to be 108 mg/dL and the “Reduction of beta-lipoprotein level after 6 hrs.” value amounted to 124 mg/dL. For the same molecule, in series [6], the “Reduced level of blood pressure after 3 hrs.” value worked out at 20 mm Hg and the “Reduced level of blood pressure after 6 hrs.” value amounted to 22 mm Hg. Also, in series [7], the inhibition in vivo at 1000 mg/kg stood at 36%. In [8], this molecule displayed a Pseudo-escapting reaction pressure of 84 mmHg and a Pseudo-escapting reaction time of 42 s. In [9], the inhibition in vivo at 1000 mg/kg/day was 6.6%. For the same molecule, the LD50 at 168 h in [10] is above 15000 mg/kg. In addition, in series [11], the “Reduced level of blood sugar after 3 hrs.” value came to 85 mg/dL and the “Reduced level of blood sugar after 6 hrs.” value amounted to 103 mg/dL. Further, in series [12], the inhibition in vivo at 500 mg/kg came to 35%.
Consider `NC(=O)c1ccc(NC2OC[C@@H](O)[C@H](O)[C@H]2O)cc1` (stereo partly drawn) [Compound 3, p-aminobenzoic acid amide-N-D-xyloside], for which, in series [1], the “Reduction of cholesterol level after 3 hrs.” value is 3 mg/dL and the “Reduction of cholesterol level after 6 hrs.” value was 45 mg/dL. Also, the inhibition in vivo at 1000 mg/kg in [2] is 26.5%. Besides, the inhibition in vivo at 1000 mg/kg/day in series [3] worked out at 7%. Also, in [4], the inhibition in vivo at 1000 mg/kg came out at 22%. In addition, in series [5], the “Reduction of beta-lipoprotein level after 3 hrs.” value stood at 115 mg/dL and the “Reduction of beta-lipoprotein level after 6 hrs.” value worked out at 119 mg/dL. Further, in series [6], the “Reduced level of blood pressure after 3 hrs.” value was 20 mm Hg and the “Reduced level of blood pressure after 6 hrs.” value stood at 24 mm Hg. Further, the inhibition in vivo at 1000 mg/kg in [7] stood at 20%. In [8], this molecule yielded a Pseudo-escapting reaction pressure of 93 mmHg and a Pseudo-escapting reaction time of 44 s. Moreover, the inhibition in vivo at 1000 mg/kg/day in [9] was 19.1%. The median lethal dose (LD50) at 168 h in series [10] was above 15000 mg/kg. In series [11], the “Reduced level of blood sugar after 3 hrs.” value was 101 mg/dL and the “Reduced level of blood sugar after 6 hrs.” value is 115 mg/dL. Further, the inhibition in vivo at 500 mg/kg in [12] amounted to 47%.
With `C[C@@H]1OC(Nc2ccc(CC(=O)O)cc2)[C@H](O)[C@H](O)[C@H]1O` (stereo partly drawn) [Compound 27, p-aminophenylacetic acid-N-L-rhamnoside], in series [1] (300 mg/kg), the “Reduction of cholesterol level after 3 hrs.” value was found to be 1 mg/dL and the “Reduction of cholesterol level after 6 hrs.” value was 30 mg/dL. The inhibition in vivo at 1000 mg/kg in series [2] was 5.2%. Besides, the inhibition in vivo at 1000 mg/kg/day in series [3] was determined as 23.1%. The inhibition in vivo at 1000 mg/kg in series [4] was determined as 35%. In series [5] (300 mg/kg), the “Reduction of beta-lipoprotein level after 3 hrs.” value came to 125 mg/dL and the “Reduction of beta-lipoprotein level after 6 hrs.” value came out at 130 mg/dL. In addition, in [6], the “Reduced level of blood pressure after 3 hrs.” value was found to be 20 mm Hg and the “Reduced level of blood pressure after 6 hrs.” value came out at 20 mm Hg. In [8], this molecule came in with a Pseudo-escapting reaction pressure of 91 mmHg and a Pseudo-escapting reaction time of 40 s. This molecule displayed an I.R. against exudation in [9] (oral, 1000 mg/kg/day) of 16.5%. Also, the LD50 at 168 h in series [10] is 13800 mg/kg. In addition, in [11], the “Reduced level of blood sugar after 3 hrs.” value came out at 91 mg/dL and the “Reduced level of blood sugar after 6 hrs.” value was determined as 90 mg/dL. In addition, the inhibition in vivo at 500 mg/kg in series [12] stood at 43%.
